Reference: US12325708B2, “Adenosine 2 receptor antagonists” (Nektar Therapeutics, priority 2019, dated 2025)

Legend:
mouse CT-26 cells = assay: Antitumor activity in CT26 subcutaneous tumor model in Balb/c mice; type: in vivo; settings: day 13 vs vehicle; 30 mg/kg qdx9 PO + anti-PD1 antibody 200 μg/mouse q2dx4 IP
Experimental: Mice used were ˜ 6-8 week-old female Balb/c mice subcutaneously inoculated with 2×10^6 mouse CT-26 cells. […] The mice were divided into six treatment groups as follows: vehicle (qdx9) PO+IP, Compound 1 (10 mg/kg, qdx9)+an exemplary anti-mouse PD1 (CD279) antibody (BioXCell) (200 μg/mouse, q2dx4); Compound 1 (30 mg/kg, qdx9)+anti-PD1 antibody (200 μg/mouse, q2dx4), Compound 1 (100 mg/kg)+anti-PD1 antibody (200 μg/mouse, q2dx4), anti-PD1 antibody (200 μg/mouse, q2dx4), or preladenant (30 mg/kg, qdx9)+anti-PD1 antibody (200 μg/mouse, q2dx4). Compound 1 and preladenant were administered orally. The anti-PD1 antibody was administered IP. Body weight was measured daily. Tumor growth of the CT26 cells was monitored three times per week by measuring the tumor volume size using a caliper with the results shown in FIG. 5.

[1] = Plasma pharmacokinetic parameters following intravenous (IV) or oral (PO) administration in rats; type: in vivo, Sprague-Dawley rats; settings: male, Sprague-Dawley, rat, plasma, Table 6; for AUC / bioavailability: 2.5 mg/kg, oral (PO) administration essentially as described in Example 28; for clearance: intravenous, 0.5 mg/kg, essentially as described in Example 28; for bioavailability: po
Experimental: (§1) Adult male Sprague-Dawley rats (230-250 g) (Charles River Labs, Hollister, CA) were utilized for the study. There were 2 rats/group. All animals were food fasted overnight with water provided ad libitum at all times. Compounds 1, 4, 14 and 19 were synthesized as described in Examples 2, 17, 7, and 12, respectively, and formulated in injectable water.
(§2) The morning of each dosing, individual doses were calculated based on current body weights on the day of dosing. The jugular vein cannula (JVC) and the carotid artery cannula (CAC) were externalized, flushed with HEP/saline (10 IU/mL HEP/mL saline), plugged, and labeled to identify the jugular vein and the carotid artery. The IV group animals were dosed at 0.5 mg/kg of Compound 1, 4, 14 or 19, respectively, intravenously via the jugular vein, while the PO dose was administered 2.5 mg/kg of Compound 1, 4, 14 or 19, respectively, orally via gavage. For the IV group, immediately following the dose of test article, the dead volume of the catheter was flushed with 0.9% saline to ensure the animals received the full dose.
Approximately 0.2 mL of blood was collected per time point from JVC. Blood samples were collected at 2 (IV group only), 5, 15, 30, 60, 120, 240, 360, 420 (Compound 19 only), 480, 720 (Compound 19 only), and 1440 minutes via the CAC and transferred immediately into K2EDTA coated tubes pre-loaded 2 μl with quenching cocktail and placed on wet ice. The samples were centrifuged within 30 min after collection at 10,000 RPM for 5 minutes and the resulting plasma was separated. Plasma was transferred into microfuge tubes and placed on dry ice immediately. The plasma samples were stored at approximately −70° C. until bioanalysis.
Plasma samples were extracted by protein precipitation with acetonitrile containing 0.1% formic acid and doxepin for Compound 1 (available from Sigma-Aldrich) or SCH58261 for Compounds 4, 14 and 19 (available from Sigma-Aldrich) as an internal standard. Following vortex and centrifugation, supernatant was diluted 3-fold with water containing 0.1% formic acid and analyzed by LC-MS/MS.
Pharmacokinetic parameters (PK) were determined by non-compartmental analysis (NCA) using Phoenix 64 WinNonlin (version 8) and Dotmatics (version 5.0). Nominal doses and time points were used for the analysis.
The following PK parameters were estimated using plasma concentration-time profile of each animal with the results presented in Table 3: • AUCinf Area under the concentration-time from zero to time infinity • AUClast Area under the concentration-time from zero to time of last concentration value • F Bioavailability • CL Total body clearance • Cmax Maximum (peak) concentration • MRTlast Mean residence time to last observable concentration • Tmax Time to reach maximum or peak concentration following administration • Vss Volume of distribution at steady state
as §1, with “Compound 1 was” for “Compounds 1, 4, 14 and 19 were”, “Example 2” for “Examples 2, 17, 7, and 12, respectively,”
as §2, with “1” for “1, 4, 14 or 19, respectively,”
Approximately 0.2 mL of blood was collected per time point from JVC. […]

[2] = Brain-to-plasma ratio (B/P) after administration; type: in vivo, Sprague-Dawley rats; settings: Sprague-Dawley, rat, oral, 2.5 mg/kg; Table 6; brain-to-plasma ratio at 1 h
Source text: A similar unexpected result was obtained when the phenyl ring present on Compound 1 was replaced with a halogen substituted pyridine. The halogen was previously introduced on the phenyl ring with the aim of blocking a possible metabolic soft-spot, with similar results observed as for Compound 1 in terms of exposure, clearance and bioavailability (Compound 10 and Compound 15). The substituted pyridine ring was designed to modulate the lipophilicity and polar surface area, as well as to address metabolic soft-spot concerns. Clearance and bioavailability parameters remain similar between substituted phenyl and pyridine (Compound 4 and Compound 14) analogs, which span a range in cLogP of 2.7-3.2. It was therefore surprising the significant improvement in exposure and clearance observed for the more lipophilic Compound 19. […] A compound is commonly deemed to be a brain penetrant if the brain-to-blood/plasma concentration ratio (B/P) is greater than 0.04 using methods as known in the art (Schaffer, Annual Reports in Medicinal Chemistry, 45:55-70, 2010).
Plasma pharmacokinetic parameters were determined following oral (PO) administration of further compounds essentially as described in Example 28 with the results shown in Table 6.

A2A receptor = molecular target: T1, A2A receptor (Homo sapiens, UniProt P29274); assay: Radioligand receptor binding assay, A2A receptor; settings: cell membranes overexpressing A2A receptor, read-out: Potency Ki A2A
T1 construct: purchased
T1 sequence (P29274 whole entry): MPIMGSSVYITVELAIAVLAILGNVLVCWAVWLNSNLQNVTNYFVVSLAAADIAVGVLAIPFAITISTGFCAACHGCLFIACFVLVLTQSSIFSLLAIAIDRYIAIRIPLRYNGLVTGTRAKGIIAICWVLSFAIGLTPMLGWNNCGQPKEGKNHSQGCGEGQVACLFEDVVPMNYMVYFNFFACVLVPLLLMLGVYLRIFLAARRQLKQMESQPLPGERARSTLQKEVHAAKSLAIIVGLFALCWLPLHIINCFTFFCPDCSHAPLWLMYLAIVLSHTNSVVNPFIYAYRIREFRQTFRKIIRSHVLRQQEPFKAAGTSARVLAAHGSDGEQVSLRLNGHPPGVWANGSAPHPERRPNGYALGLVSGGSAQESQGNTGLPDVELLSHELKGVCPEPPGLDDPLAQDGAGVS
Experimental: (§3) Using conventional receptor binding assay techniques, Compounds 1-24 were assayed to determine binding activity at the A2A, A1, and A3 receptors with the results shown in Table 7.
(§4) Receptor binding affinity of Compounds 1-24 was measured using radioligand binding assays using commercially obtained cell membranes prepared from cell lines overexpressing the A2A, A1, or A3 receptors. Briefly, cell membrane preparations from cells expressing the specific receptor were mixed with the appropriate [^3H]-labeled tracer for the specific receptor and the test compound or a known inhibitor of receptor-ligand binding. Following 60 min incubation at room temperature to allow receptor-ligand complex formation, the complexes were collected by filtration, washed with 50 mM Tris HCl (pH 7.5) to remove radioligand that was not receptor-bound, and the remaining radioactivity determined by liquid scintillation counting. Specific radioligand binding was calculated for each test compound concentration and IC50 values were determined by non-linear, regression analysis. Inhibition constants (Ki) were calculated using the equation of Cheng and Prusoff using the observed IC50 of the tested compound, the concentration of radioligand employed in the assay and the experimentally determined values for the Kd of the ligand.

A1 receptor = molecular target: T2, A1 receptor (Homo sapiens, UniProt P30542); assay: Radioligand receptor binding assay, A1 receptor; settings: cell membranes overexpressing A1 receptor, read-out: Potency Ki A1
T2 construct: purchased
T2 sequence (P30542 1-326): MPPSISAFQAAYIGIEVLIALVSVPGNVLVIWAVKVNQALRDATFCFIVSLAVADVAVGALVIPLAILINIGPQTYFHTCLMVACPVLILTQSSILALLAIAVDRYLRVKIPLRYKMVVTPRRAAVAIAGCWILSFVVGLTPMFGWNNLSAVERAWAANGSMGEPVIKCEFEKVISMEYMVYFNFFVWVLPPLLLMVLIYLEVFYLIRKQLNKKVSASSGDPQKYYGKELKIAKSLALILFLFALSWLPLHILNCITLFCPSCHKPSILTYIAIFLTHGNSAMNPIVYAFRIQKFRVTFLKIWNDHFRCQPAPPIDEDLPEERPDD
Experimental: as §3, §4

AUC [1] [ng·h/mL] | clearance [1] [mL/min/kg] | bioavailability [1] [%] | Kp at 1 h [2] | Ki (A2A receptor) [nM] | Ki (A1 receptor) [nM] | Compound | % TGI (mouse CT-26 cells)
 |  |  |  |  |  | Preladenant [reference compound] | 56^3%
709 | 33 | 57 | 0.06 | 4 | 32400 | [2H]C([2H])([2H])OC([2H])([2H])C([2H])([2H])Oc1cnc(N2CCN(CCN(C)c3cc4nc(-c5ncco5)nn4c(N)n3)CC2)c(F)c1 [Compound 13, N^7-(2-{4-[3-fluoro-5-({2-[(^2H3)methyloxy](^2H4)ethyl}oxy)pyridin-2-yl]piperazin-1-yl}ethyl)-N^7-methyl-2-(1,3-oxazol-2-yl)[1,2,4]triazolo[1,5-c]pyrimidine-5,7-diamine] | 
1170 | 23 | 65 | 0.04 | 6 | > 4000 | [2H]C([2H])(N1CCN(c2ccc(OCCOC)cc2)CC1)C([2H])([2H])N(C)c1cc2nc(-c3ncco3)nn2c(N)n1 [Compound 9, N^7-[2-{4-[4-(2-methoxyethoxy)phenyl]piperazin-1-yl}(^2H4)ethyl]-N^7-methyl-2-(1,3-oxazol-2-yl)[1,2,4]triazolo[1,5-c]pyrimidine-5,7-diamine] | 
376 | 47 | 44 | 0.04 | 10 | 20100 | COCCOc1cnc(N2CCN(CCN(C)c3cc4nc(-c5ncco5)nn4c(N)n3)CC2)nc1 [Compound 3, N^7-(2-{4-[5-(2-methoxyethoxy)pyrimidin-2-yl]piperazin-1-yl}ethyl)-N^7-methyl-2-(1,3-oxazol-2-yl)[1,2,4]triazolo[1,5-c]pyrimidine-5,7-diamine] | 
406 | 44 | 43 | 0.03 | 20 | 11800 | COCCOc1ccc(N2CCN(CCN(C)c3cc4nc(-c5ncco5)nn4c(N)n3)CC2)c(OC)c1 [Compound 17, N^7-(2-{4-[2-methoxy-4-(2-methoxyethoxy)phenyl]piperazin-1-yl}ethyl)-N^7-methyl-2-(1,3-oxazol-2-yl)[1,2,4]triazolo[1,5-c]pyrimidine-5,7-diamine] | 
819 | 30 | 57 | 0.09 | 5.5 | > 10000 | [2H]C([2H])([2H])OCCOc1ccc(N2CCN(CCN(C)c3cc4nc(-c5ncco5)nn4c(N)n3)CC2)c(F)c1 [Compound 10, N^7-{2-[4-(2-fluoro-4-{2-[(^2H3)methyloxy]ethoxy}phenyl)piperazin-1-yl]ethyl}-N^7-methyl-2-(1,3-oxazol-2-yl)[1,2,4]triazolo[1,5-c]pyrimidine-5,7-diamine] | 
1070 | 28 | 70 | 0.11 | 43 | > 10000 | COCCOc1ccc(N2CCN(CCNc3cc4nc(-c5ncco5)nn4c(N)n3)CC2)cc1 [Compound 24, N^7-(2-{4-[4-(2-methoxyethoxy)phenyl]piperazin-1-yl}ethyl)-2-(1,3-oxazol-2-yl)[1,2,4]triazolo[1,5-c]pyrimidine-5,7-diamine] | 
280 | 38 | 25 | 0.03 | 11 | 3200 | COCCOc1ncc(N2CCN(CCN(C)c3cc4nc(-c5ncco5)nn4c(N)n3)CC2)cc1C(F)(F)F [Compound 22, N^7-(2-{4-[6-(2-methoxyethoxy)-5-(trifluoromethyl)pyridin-3-yl]piperazin-1-yl}ethyl)-N^7-methyl-2-(1,3-oxazol-2-yl)[1,2,4]triazolo[1,5-c]pyrimidine-5,7-diamine] | 
